Results as given in PubChem BioAssay (NCI).
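Exposure lasted 48 hours, with cells grown in 96-well plates and compounds tested at five concentrations. GI50 marks 50% less growth. The concentration for full growth arrest is given as TGI.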

Assays:
Experiment in all cases: DTP human tumour cell line panel, 48 h
[1] = system: EKVX NSCLC
[2] = system: SNB-19 CNS
[3] = system: SK-MEL-2 melanoma
[4] = system: DU-145 prostate
[5] = system: MCF7 breast
[6] = system: HOP-62 NSCLC
[7] = system: UO-31 renal
[8] = system: A498 renal
[9] = system: COLO 205 colon
[10] = system: UACC-257 melanoma
[11] = system: OVCAR-8 ovarian
[12] = system: OVCAR-5 ovarian
[13] = system: T-47D breast
[14] = system: ACHN renal
[15] = system: CCRF-CEM leukemia
[16] = system: SK-OV-3 ovarian
[17] = system: SW-620 colon
[18] = system: SK-MEL-28 melanoma
[19] = system: OVCAR-3 ovarian
[20] = system: MOLT-4 leukemia
[21] = system: CAKI-1 renal
[22] = system: HL-60(TB) leukemia
[23] = system: SF-295 CNS
[24] = system: LOX IMVI melanoma
[25] = system: SR leukemia
[26] = system: MDA-MB-231 breast
[27] = system: NCI-H460 lung
[28] = system: RXF 393 renal
[29] = system: K-562 leukemia
[30] = system: NCI-H226 lung
[31] = system: NCI-H23 lung
[32] = system: HCT-15 colon
[33] = system: TK-10 renal
[34] = system: SN12C renal
[35] = system: MDA-MB-435
[36] = system: U251 CNS
[37] = system: MALME-3M melanoma
[38] = system: NCI/ADR-RES ovarian
[39] = system: IGROV1 ovarian
[40] = system: SF-268 CNS
[41] = system: 786-0 renal
[42] = system: SF-539 CNS
[43] = system: MDA-N
[44] = system: HS 578T breast
[45] = system: HCT-116 colon
[46] = system: BT-549 breast
[47] = system: HT29 colon
[48] = system: SNB-75 CNS
[49] = system: PC-3 prostate
[50] = system: SK-MEL-5 melanoma
[51] = system: M14 melanoma
[52] = system: RPMI-8226 leukemia
[53] = system: OVCAR-4 ovarian
[54] = system: NCI-H522 lung
[55] = system: UACC-62 melanoma
[56] = system: KM12 colon
[57] = system: A549 NSCLC
[58] = system: HCC-2998 colon
[59] = system: HOP-92 NSCLC

Compound: O=C1c2cccnc2-c2nc(-c3ccncc3)cc3c2c1nc1ccccc13
- GI50 [1]: 24.3 µM
- TGI [1]: > 100 µM
- GI50 [2]: 19.3 µM
- TGI [2]: 47.4 µM
- GI50 [3]: > 100 µM
- TGI [3]: > 100 µM
- GI50 [4]: 20.6 µM
- TGI [4]: 42.7 µM
- GI50 [5]: 11.4 µM
- TGI [5]: 23.5 µM
- GI50 [6]: 14.3 µM
- TGI [6]: 27.4 µM
- GI50 [7]: 33.2 µM
- TGI [7]: > 100 µM
- GI50 [8]: 38.5 µM
- TGI [8]: > 100 µM
- GI50 [9]: 30 µM
- TGI [9]: 72.6 µM
- GI50 [10]: > 100 µM
- TGI [10]: > 100 µM
- GI50 [11]: 10.5 µM
- TGI [11]: 24 µM
- GI50 [12]: 31.2 µM
- TGI [12]: > 100 µM
- GI50 [13]: 44.9 µM
- TGI [13]: > 100 µM
- GI50 [14]: 12.1 µM
- TGI [14]: 24.4 µM
- GI50 [15]: 8.03 µM
- TGI [15]: 39.6 µM
- GI50 [16]: > 100 µM
- TGI [16]: > 100 µM
- GI50 [17]: 12.7 µM
- TGI [17]: 41.6 µM
- GI50 [18]: > 100 µM
- TGI [18]: > 100 µM
- GI50 [19]: 7.51 µM
- TGI [19]: 20 µM
- GI50 [20]: 5.14 µM
- TGI [20]: > 100 µM
- GI50 [21]: 16.4 µM
- TGI [21]: 34.8 µM
- GI50 [22]: 12.3 µM
- TGI [22]: 89.6 µM
- GI50 [23]: 15.1 µM
- TGI [23]: 28.4 µM
- GI50 [24]: 16.1 µM
- TGI [24]: 43.6 µM
- GI50 [25]: 2.94 µM
- TGI [25]: > 100 µM
- GI50 [26]: 14.3 µM
- TGI [26]: 50.1 µM
- GI50 [27]: 6.29 µM
- TGI [27]: 19.5 µM
- GI50 [28]: 15.6 µM
- TGI [28]: 66.7 µM
- GI50 [29]: 15.4 µM
- TGI [29]: > 100 µM
- GI50 [30]: 10.9 µM
- TGI [30]: 22.8 µM
- GI50 [31]: 12.5 µM
- TGI [31]: 28 µM
- GI50 [32]: 10.2 µM
- TGI [32]: 21.8 µM
- GI50 [33]: 19.5 µM
- TGI [33]: 40.2 µM
- GI50 [34]: 20 µM
- TGI [34]: 47.5 µM
- GI50 [35]: 15.5 µM
- TGI [35]: 30.1 µM
- GI50 [36]: 12 µM
- TGI [36]: 64.5 µM
- GI50 [37]: 14.9 µM
- TGI [37]: 29.3 µM
- GI50 [38]: 9.63 µM
- TGI [38]: 24.8 µM
- GI50 [39]: 4.67 µM
- TGI [39]: 28.8 µM
- GI50 [40]: 15.1 µM
- TGI [40]: 34.5 µM
- GI50 [41]: 15 µM
- TGI [41]: 39.9 µM
- GI50 [42]: 2.95 µM
- TGI [42]: 13.6 µM
- GI50 [43]: 19.9 µM
- TGI [43]: 35.9 µM
- GI50 [44]: 10.6 µM
- TGI [44]: 23.1 µM
- GI50 [45]: 17.1 µM
- TGI [45]: 51 µM
- GI50 [46]: 24.6 µM
- TGI [46]: 62.1 µM
- GI50 [47]: 17.9 µM
- TGI [47]: 31.7 µM
- GI50 [48]: 13.1 µM
- TGI [48]: 25.8 µM
- GI50 [49]: 16.1 µM
- TGI [49]: 61.9 µM
- GI50 [50]: 14.1 µM
- TGI [50]: 36.5 µM
- GI50 [51]: 17.8 µM
- TGI [51]: 31.6 µM
- GI50 [52]: 14.6 µM
- TGI [52]: 64.8 µM

Compound: N#CC(C#N)=CNC(=S)c1ccncc1
- TGI [1]: > 100 µM
- TGI [2]: > 100 µM
- TGI [3]: > 100 µM
- TGI [4]: > 100 µM
- TGI [5]: > 100 µM
- TGI [6]: > 100 µM
- TGI [7]: 52.8 µM
- TGI [8]: > 100 µM
- TGI [9]: > 100 µM
- TGI [10]: > 100 µM
- TGI [11]: > 100 µM
- TGI [12]: > 100 µM
- TGI [13]: > 100 µM
- TGI [14]: > 100 µM
- TGI [15]: > 100 µM
- TGI [16]: > 100 µM
- TGI [17]: > 100 µM
- TGI [18]: > 100 µM
- TGI [19]: 1.36 µM
- TGI [20]: > 100 µM
- TGI [21]: > 100 µM
- TGI [22]: > 100 µM
- TGI [23]: > 100 µM
- TGI [24]: > 100 µM
- TGI [25]: > 100 µM
- TGI [26]: > 100 µM
- TGI [27]: > 100 µM
- TGI [28]: > 100 µM
- TGI [29]: > 100 µM
- TGI [30]: > 100 µM
- TGI [31]: > 100 µM
- TGI [32]: > 100 µM
- TGI [34]: > 100 µM
- TGI [35]: > 100 µM
- TGI [36]: > 100 µM
- TGI [37]: > 100 µM
- TGI [38]: > 100 µM
- TGI [39]: > 100 µM
- TGI [40]: > 100 µM
- TGI [53]: > 100 µM
- TGI [41]: > 100 µM
- TGI [42]: 68.4 µM
- TGI [43]: > 100 µM
- TGI [54]: > 100 µM
- TGI [55]: > 100 µM
- TGI [44]: > 100 µM
- TGI [45]: > 100 µM
- TGI [56]: > 100 µM
- TGI [46]: 80.3 µM
- TGI [47]: > 100 µM
- TGI [48]: > 100 µM
- TGI [57]: > 100 µM
- TGI [58]: > 100 µM
- TGI [49]: > 100 µM
- TGI [50]: > 100 µM
- TGI [51]: > 100 µM
- TGI [52]: > 100 µM

Compound: CN(C)c1ccc(C=C2N=C(c3ccccc3)N(c3cc(C(=O)c4ccccc4)ccc3N3C(=O)/C(=C/c4ccc(N(C)C)cc4)N=C3c3ccccc3)C2=O)cc1
- TGI [1]: > 100 µM
- TGI [2]: > 100 µM
- TGI [3]: 21.4 µM
- TGI [4]: > 100 µM
- TGI [5]: > 100 µM
- TGI [6]: > 100 µM
- TGI [7]: > 100 µM
- TGI [8]: > 100 µM
- TGI [9]: 19.4 µM
- TGI [10]: > 100 µM
- TGI [11]: 73.6 µM
- TGI [12]: > 100 µM
- TGI [13]: > 100 µM
- TGI [14]: > 100 µM
- TGI [15]: > 100 µM
- TGI [16]: > 100 µM
- TGI [17]: > 100 µM
- TGI [18]: > 100 µM
- TGI [19]: 5.57 µM
- TGI [20]: 14.9 µM
- TGI [21]: > 100 µM
- TGI [22]: 37.6 µM
- TGI [23]: 27.1 µM
- TGI [24]: > 100 µM
- TGI [25]: > 100 µM
- TGI [26]: > 100 µM
- TGI [27]: > 100 µM
- TGI [59]: > 100 µM
- TGI [29]: > 100 µM
- TGI [32]: > 100 µM
- TGI [33]: > 100 µM
- TGI [34]: > 100 µM
- TGI [35]: 4.42 µM
- TGI [36]: 29.5 µM
- TGI [38]: 85.1 µM
- TGI [39]: > 100 µM
- TGI [40]: > 100 µM
- TGI [53]: > 100 µM
- TGI [41]: > 100 µM
- TGI [42]: 6.05 µM
- TGI [43]: 6.03 µM
- TGI [55]: > 100 µM
- TGI [44]: > 100 µM
- TGI [45]: 95.4 µM
- TGI [56]: > 100 µM
- TGI [46]: > 100 µM
- TGI [47]: 24.7 µM
- TGI [48]: 78.9 µM
- TGI [57]: > 100 µM
- TGI [58]: 22.7 µM
- TGI [49]: 28.2 µM
- TGI [50]: > 100 µM
- TGI [51]: > 100 µM
- TGI [52]: 8.86 µM
